Laboratory results: ChEMBL document CHEMBL2424616, “Synthesis and antimicrobial activity of novel 5-(1-adamantyl)-2-aminomethyl-4-substituted-1,2,4-triazoline-3-thiones” (2013)
In brackets after ≈: the same amount, converted by molar mass.

Legend:
Format in all cases: functional
Candida albicans = assay: Antifungal activity against Candida albicans IFO 0583 assessed as growth inhibition at 200 ug/disc after 48 hrs by agar disc-diffusion method; settings: IFO 0583, 48 h, read-out: DIZ
Pseudomonas aeruginosa = assay: Antibacterial activity against Pseudomonas aeruginosa IFO 3448 assessed as growth inhibition at 200 ug/disc after 24 hrs by agar disc-diffusion method; settings: IFO 3448, 24 h, read-out: DIZ
Escherichia coli = assay: Antibacterial activity against Escherichia coli IFO 3301 assessed as growth inhibition at 200 ug/disc after 24 hrs by agar disc-diffusion method; settings: IFO 3301, 24 h, read-out: DIZ
Micrococcus luteus [1] = assay: Antibacterial activity against Micrococcus luteus IFO 3232 assessed as growth inhibition at 200 ug/disc after 24 hrs by agar disc-diffusion method; settings: IFO 3232, 24 h, read-out: DIZ
Bacillus subtilis [2] = assay: Antibacterial activity against Bacillus subtilis IFO 3007 assessed as growth inhibition at 200 ug/disc after 24 hrs by agar disc-diffusion method; settings: IFO 3007, 24 h, read-out: DIZ
Staphylococcus aureus [3] = assay: Antibacterial activity against Staphylococcus aureus IFO 3060 assessed as growth inhibition at 200 ug/disc after 24 hrs by agar disc-diffusion method; settings: IFO 3060, 24 h, read-out: DIZ
Micrococcus luteus [4] = assay: Antibacterial activity against Micrococcus luteus IFO 3232 after 24 hrs by two fold dilution method; settings: IFO 3232, 24 h
Bacillus subtilis [5] = assay: Antibacterial activity against Bacillus subtilis IFO 3007 after 24 hrs by two fold dilution method; settings: IFO 3007, 24 h
Staphylococcus aureus [6] = assay: Antibacterial activity against Staphylococcus aureus IFO 3060 after 24 hrs by two fold dilution method; settings: IFO 3060, 24 h

MIC (Micrococcus luteus [4]) [µg/mL]	MIC (Bacillus subtilis [5]) [µg/mL]	MIC (Staphylococcus aureus [6]) [µg/mL]	SMILES	zone of inhibition at 200 µg/disc (Candida albicans) [mm]	zone of inhibition at 200 µg/disc (Pseudomonas aeruginosa) [mm]	zone of inhibition at 200 µg/disc (Escherichia coli) [mm]	zone of inhibition at 200 µg/disc (Micrococcus luteus [1]) [mm]	zone of inhibition at 200 µg/disc (Bacillus subtilis [2]) [mm]	zone of inhibition at 200 µg/disc (Staphylococcus aureus [3]) [mm]
–	–	–	Cn1c(C23CC4CC(CC(C4)C2)C3)nn(CNc2ccc(Br)cc2)c1=S	< 10	< 10	< 10	< 10	< 10	< 10
–	–	–	FC(F)(F)c1cccc(NCn2nc(C34CC5CC(CC(C5)C3)C4)n(-c3ccc(Cl)cc3)c2=S)c1	< 10	< 10	< 10	17	16	16
16 (≈ 30.3 µM)	4 (≈ 7.57 µM)	4 (≈ 7.57 µM)	Oc1ccc(/C=N/n2c(C34CC5CC(CC(C5)C3)C4)nn(CN3CCN(c4ccccc4)CC3)c2=S)cc1	< 10	< 10	16	19	22	22
16 (≈ 30.3 µM)	4 (≈ 7.57 µM)	8 (≈ 15.1 µM)	Oc1ccccc1/C=N/n1c(C23CC4CC(CC(C4)C2)C3)nn(CN2CCN(c3ccccc3)CC2)c1=S	< 10	12	14	18	25	22
–	4 (≈ 7.62 µM)	4 (≈ 7.62 µM)	CCOC(=O)N1CCN(Cn2nc(C34CC5CC(CC(C5)C3)C4)n(/N=C/c3ccccc3O)c2=S)CC1	< 10	< 10	< 10	16	19	18
16 (≈ 30.8 µM)	8 (≈ 15.4 µM)	–	FC(F)(F)c1ccc(NCn2nc(C34CC5CC(CC(C5)C3)C4)n(-c3ccc(Cl)cc3)c2=S)cc1	< 10	11	14	18	22	16
–	–	–	CCOC(=O)N1CCN(Cn2nc(C34CC5CC(CC(C5)C3)C4)n(/N=C/c3ccc(O)cc3)c2=S)CC1	< 10	< 10	< 10	14	16	17
–	–	–	S=c1n(CNc2cc(Cl)cc(Cl)c2)nc(C23CC4CC(CC(C4)C2)C3)n1-c1ccc(Cl)cc1	< 10	< 10	< 10	11	13	12
–	–	–	CCOc1ccc(NCn2nc(C34CC5CC(CC(C5)C3)C4)n(C)c2=S)cc1	< 10	< 10	< 10	< 10	< 10	< 10
2 (≈ 4.16 µM)	0.5 (≈ 1.04 µM)	1 (≈ 2.08 µM)	CCN1CCN(Cn2nc(C34CC5CC(CC(C5)C3)C4)n(/N=C/c3ccccc3O)c2=S)CC1	< 10	11	16	24	30	26
–	2 (≈ 3.68 µM)	2 (≈ 3.68 µM)	Oc1ccccc1/C=N/n1c(C23CC4CC(CC(C4)C2)C3)nn(CN2CCN(Cc3ccccc3)CC2)c1=S	< 10	11	11	17	21	19
–	–	–	S=c1n(CN2CCN(Cc3ccccc3)CC2)nc(C23CC4CC(CC(C4)C2)C3)n1-c1ccc(Cl)cc1	< 10	< 10	< 10	11	12	11
2 (≈ 4.16 µM)	1 (≈ 2.08 µM)	1 (≈ 2.08 µM)	CCN1CCN(Cn2nc(C34CC5CC(CC(C5)C3)C4)n(/N=C/c3ccc(O)cc3)c2=S)CC1	< 10	13	17	25	29	30
16 (≈ 35.3 µM)	4 (≈ 8.82 µM)	4 (≈ 8.82 µM)	COc1ccccc1N1CCN(Cn2nc(C34CC5CC(CC(C5)C3)C4)n(C)c2=S)CC1	< 10	< 10	11	19	20	22
